Our source for the IC50 values is patent publication US20240109918A1, “HETEROCYCLIC COMPOUNDS AND USES THEREOF” (Kumquat Biosciences Inc., priority 2022, published 2024).

Assay [1] deals with T1, KRASwt (Homo sapiens, UniProt P01116).
T1 construct: made in house; host or cells: E. coli BL21 (DE3)
Briefly: Bio-Biochem-PPI-HTRF Ras-SOS1 interaction assay (KRAS wt). To be noted: 5 nM. The format is biochemical. Summed up:
(§1)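 HTRF readout (ex 337 nm; em 620 and 665 nm) after ≥~10 min incubation; IC50 fitted from 665/620 ratio. GST-K-Ras wt or G12D plus anti-GST-Eu(K), His-hSOS1 plus anti-6His-XL665; duplicate dilutions, 10 μM top.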
On the technique in general: TR-FRET usually uses a lanthanide donor and a delayed reading to cut background.

Assay [2] has as its target T2, KRASG12D (Homo sapiens, UniProt P01116, G12D).
T2 construct: made in house; host or cells: E. coli BL21 (DE3)
Briefly: Bio-Biochem-PPI-HTRF Ras-SOS1 interaction assay (KRAS G12D). The format is biochemical. To be noted: 5 nM. The procedure, abridged: as §1

Where only a bound is given, the exact number is not on record here.

T1 sequence (P01116 1-188 isoform P01116-2): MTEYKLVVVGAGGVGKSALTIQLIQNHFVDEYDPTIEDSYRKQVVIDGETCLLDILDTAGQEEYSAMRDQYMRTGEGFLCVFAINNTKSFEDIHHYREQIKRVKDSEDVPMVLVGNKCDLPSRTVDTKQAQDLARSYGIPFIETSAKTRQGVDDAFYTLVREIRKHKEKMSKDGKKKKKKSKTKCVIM
T2 sequence (P01116 1-188 isoform P01116-2 G12D): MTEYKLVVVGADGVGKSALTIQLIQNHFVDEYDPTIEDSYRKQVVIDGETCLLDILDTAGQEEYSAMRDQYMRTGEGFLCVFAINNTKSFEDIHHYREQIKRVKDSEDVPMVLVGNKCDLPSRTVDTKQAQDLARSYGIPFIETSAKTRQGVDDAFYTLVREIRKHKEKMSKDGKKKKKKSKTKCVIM

For `N#Cc1c(N)sc2c(F)ccc(-c3c(Cl)cc4c(N5CCCCC6(CN(C(=O)N7CCCC7)C6)C5)nc(OC[C@@]56CCCN5C[C@H](F)C6)nc4c3F)c12` [compound 231, 2-amino-4-(6-chloro-8-fluoro-2-(((2R,7aS)-2-fluorotetrahydro-1H-pyrrolizin-7a(5H)-yl)methoxy)-4-(2-(pyrrolidine-1-carbonyl)-2,6-diazaspiro[3.6]decan-6-yl)quinazolin-7-yl)-7-fluorobenzo[b]thiophene-3-carbonitrile], the 50% inhibitory concentration (IC50) in assay [1] and in assay [2] was less than 5 µM each time.
For `N#Cc1c(N)sc2c(F)ccc(-c3c(Cl)cc4c(N5CC(F)(F)CCC6(CN(C(=O)[C@@H]7CC7(F)F)C6)C5)nc(OC[C@@]56CCCN5C[C@H](F)C6)nc4c3F)c12` [compound 232, 2-amino-4-(6-chloro-4-(2-((S)-2,2-difluorocyclopropane-1-carbonyl)-8,8-difluoro-2,6-diazaspiro[3.6]decan-6-yl)-8-fluoro-2-(((2R,7aS)-2-fluorotetrahydro-1H-pyrrolizin-7a(5H)-yl)methoxy)quinazolin-7-yl)-7-fluorobenzo[b]thiophene-3-carbonitrile], the IC50 in assay [1] and in assay [2] was less than 5 µM in each case.
Take `N#Cc1c(N)sc2c(F)ccc(-c3c(F)c4nc(OC[C@@]56CCCN5C[C@H](F)C6)nc(N5CCCCC6(CN(C(=O)C(F)F)C6)C5)c4c(=O)n3C3CC3)c12` [compound 233, 2-amino-4-(6-cyclopropyl-4-(2-(2,2-difluoroacetyl)-2,6-diazaspiro [3.6]decan-6-yl)-8-fluoro-2-(((2R,7aS)-2-fluorotetrahydro-1H-pyrrolizin-7a(5H)-yl)methoxy)-5-oxo-5,6-dihydropyrido[4,3-d]pyrimidin-7-yl)-7-fluorobenzo[b]thiophene-3-carbonitrile]: the IC50 in assay [1] and in assay [2] was less than 5 µM in each case.
For the compound `CN(C(=O)N1CC2(CCCCN(c3nc(OC[C@@]45CCCN4C[C@H](F)C5)nc4c(F)c(-c5ccc(F)c6sc(N)c(C#N)c56)c(Cl)cc34)C2)C1)C1CC1` [compound 234, 6-(7-(2-amino-3-cyano-7-fluorobenzo[b]thiophen-4-yl)-6-chloro-8-fluoro-2-(((2R,7aS)-2-fluorotetrahydro-1H-pyrrolizin-7a(5H)-yl)methoxy)quinazolin-4-yl)-N-cyclopropyl-N-methyl-2,6-diazaspiro[3.6]decane-2-carboxamide], the concentration for half-maximal inhibition (IC50) in assay [1] and in assay [2] was less than 5 µM throughout.
For `N#Cc1c(N)sc2c(F)ccc(-c3c(Cl)cc4c(N5CCCCC6(CN(C(=O)CC7CC7(F)F)C6)C5)nc(OC[C@@]56CCCN5C[C@H](F)C6)nc4c3F)c12` (stereo partly drawn) [compound 235, 2-amino-4-(6-chloro-4-(2-(2-(2,2-difluorocyclopropyl)acetyl)-2,6-diazaspiro[3.6]decan-6-yl)-8-fluoro-2-(((2R,7aS)-2-fluorotetrahydro-1H-pyrrolizin-7a(5H)-yl)methoxy)quinazolin-7-yl)-7-fluorobenzo[b]thiophene-3-carbonitrile], the 50% inhibitory concentration (IC50) in assay [1] and in assay [2] was less than 5 µM in each case.
For the compound `CN1CCC[C@H]1COc1nc2c(c(N3CCCCC4(CN(C(=O)C5CC5(F)F)C4)C3)n1)CCN(c1cccc3cccc(Cl)c13)C2` (stereo partly drawn) [compound 236, (6-(7-(8-chloronaphthalen-1-yl)-2-(((S)-1-methylpyrrolidin-2-yl)methoxy)-5,6,7,8-tetrahydropyrido[3,4-d]pyrimidin-4-yl)-2,6-diazaspiro[3.6]decan-2-yl)(2,2-difluorocyclopropyl)methanone], the concentration for half-maximal inhibition (IC50) in assay [1] and in assay [2] was not below 5 µM throughout.
Take `N#Cc1c(N)sc2c(F)ccc(-c3c(Cl)cc4c(N5CCCCC6(CN(C(=O)C78CC(C(F)(F)F)(C7)C8)C6)C5)nc(OC[C@@]56CCCN5C[C@H](F)C6)nc4c3F)c12` [compound 237, 2-amino-4-(6-chloro-8-fluoro-2-(((2R,7aS)-2-fluorotetrahydro-1H-pyrrolizin-7a(5H)-yl)methoxy)-4-(2-(3-(trifluoromethyl)bicyclo[1.1.1]pentane-1-carbonyl)-2,6-diazaspiro[3.6]decan-6-yl)quinazolin-7-yl)-7-fluorobenzo[b]thiophene-3-carbonitrile]: the IC50 in assay [1] and in assay [2] was less than 5 µM in each case.
Consider `N#Cc1c(N)sc2c(F)ccc(-c3c(Cl)cc4c(N5CCCCC6(CN(C(=O)C7C8COCC87)C6)C5)nc(OC[C@@]56CCCN5C[C@H](F)C6)nc4c3F)c12` (stereo partly drawn) [compound 238, 4-(4-(2-(3-oxabicyclo[3.1.0]hexane-6-carbonyl)-2,6-diazaspiro [3.6]decan-6-yl)-6-chloro-8-fluoro-2-(((2R,7aS)-2-fluorotetrahydro-1H-pyrrolizin-7a(5H)-yl)methoxy)quinazolin-7-yl)-2-amino-7-fluorobenzo[b]thiophene-3-carbonitrile], for which the half-maximal inhibitory concentration (IC50) in assay [1] and in assay [2] was less than 5 µM throughout.
For the compound `N#Cc1c(N)sc2c(F)ccc(-c3c(Cl)cc4c(N5CCOCC6(CN(C(=O)[C@@H]7CC7(F)F)C6)C5)nc(OC[C@@]56CCCN5C[C@H](F)C6)nc4c3F)c12` [compound 239, 2-amino-4-(6-chloro-4-(2-((S)-2,2-difluorocyclopropane-1-carbonyl)-6-oxa-2,9-diazaspiro[3.6]decan-9-yl)-8-fluoro-2-(((2R,7aS)-2-fluorotetrahydro-1H-pyrrolizin-7a(5H)-yl)methoxy)quinazolin-7-yl)-7-fluorobenzo[b]thiophene-3-carbonitrile], the IC50 in assay [1] and in assay [2] was less than 5 µM throughout.
In the case of `N#Cc1c(N)sc2c(F)ccc(-c3c(Cl)cc4c(N5CCCCC6(CN(C(=O)[C@]78COC[C@H]7C8(F)F)C6)C5)nc(OC[C@@]56CCCN5C[C@H](F)C6)nc4c3F)c12` [compound 240, 2-amino-4-(6-chloro-4-(2-((1R,5S)-6,6-difluoro-3-oxabicyclo[3.1.0]hexane-1-carbonyl)-2,6-diazaspiro[3.6]decan-6-yl)-8-fluoro-2-(((2R,7aS)-2-fluorotetrahydro-1H-pyrrolizin-7a(5H)-yl)methoxy)quinazolin-7-yl)-7-fluorobenzo[b]thiophene-3-carbonitrile], the IC50 in assay [1] and in assay [2] was less than 5 µM in each case.
Consider `N#Cc1c(N)sc2c(F)ccc(-c3c(Cl)cc4c(N5CCC(O)CC6(CN(C(=O)C(F)F)C6)C5)nc(OC[C@@]56CCCN5C[C@H](F)C6)nc4c3F)c12` (stereo partly drawn) [compound 241, 2-amino-4-(6-chloro-4-(2-(2,2-difluoroacetyl)-9-hydroxy-2,6-diazaspiro [3.6]decan-6-yl)-8-fluoro-2-(((2R,7aS)-2-fluorotetrahydro-1H-pyrrolizin-7a(5H)-yl)methoxy)quinazolin-7-yl)-7-fluorobenzo[b]thiophene-3-carbonitrile], for which the IC50 in assay [1] and in assay [2] was less than 5 µM in each case.
Take `N#Cc1c(N)sc2c(F)ccc(-c3c(Cl)cc4c(N5CCCCC6(CN(C(=O)C7(C#N)CC7)C6)C5)nc(OC[C@@]56CCCN5C[C@H](F)C6)nc4c3F)c12` [compound 242, 2-amino-4-(6-chloro-4-(2-(1-cyanocyclopropane-1-carbonyl)-2,6-diazaspiro[3.6]decan-6-yl)-8-fluoro-2-(((2R,7aS)-2-fluorotetrahydro-1H-pyrrolizin-7a(5H)-yl)methoxy)quinazolin-7-yl)-7-fluorobenzo[b]thiophene-3-carbonitrile]: the IC50 in assay [1] and in assay [2] was less than 5 µM throughout.
In the case of `C[C@@H](O)C(=O)N1CC2(CCCCN(c3nc(OC[C@@]45CCCN4C[C@H](F)C5)nc4c(F)c(-c5ccc(F)c6sc(N)c(C#N)c56)c(Cl)cc34)C2)C1` [compound 243, 2-amino-4-(6-chloro-8-fluoro-2-(((2R,7aS)-2-fluorotetrahydro-1H-pyrrolizin-7a(5H)-yl)methoxy)-4-(2-((R)-2-hydroxypropanoyl)-2,6-diazaspiro[3.6]decan-6-yl)quinazolin-7-yl)-7-fluorobenzo[b] thiophene-3-carbonitrile], the IC50 in assay [1] and in assay [2] was less than 5 µM each time.
`N#Cc1c(N)sc2c(F)ccc(-c3c(Cl)cc4c(N5CCCCC6(CN(C(=O)C7(C(F)(F)F)CC7)C6)C5)nc(OC[C@@]56CCCN5C[C@H](F)C6)nc4c3F)c12` [compound 244, 2-amino-4-(6-chloro-8-fluoro-2-(((2R,7aS)-2-fluorotetrahydro-1H-pyrrolizin-7a(5H)-yl)methoxy)-4-(2-(1-(trifluoromethyl)cyclopropane-1-carbonyl)-2,6-diazaspiro[3.6]decan-6-yl)quinazolin-7-yl)-7-fluorobenzo[b] thiophene-3-carbonitrile]: the IC50 in assay [1] and in assay [2] was less than 5 µM each time.
Consider `CC(C)=C(C#N)C(=O)N1CC2(C1)CN(c1nc(OC[C@@]34CCCN3C[C@H](F)C4)nc3c(F)c(-c4ccc(F)c5sc(N)c(C#N)c45)c(Cl)cc13)CCO2` [compound 245, 2-amino-4-(6-chloro-4-(2-(2-cyano-3-methylbut-2-enoyl)-5-oxa-2,8-diazaspiro[3.5]nonan-8-yl)-8-fluoro-2-(((2R,7aS)-2-fluorotetrahydro-1H-pyrrolizin-7a(5H)-yl)methoxy)quinazolin-7-yl)-7-fluorobenzo[b]thiophene-3-carbonitrile], for which the half-maximal inhibitory concentration (IC50) in assay [1] and in assay [2] was less than 5 µM each time.
For the compound `N#Cc1c(N)sc2c(F)ccc(-c3c(F)c4nc(OC[C@@]56CCCN5C[C@H](F)C6)nc(N5CCCCC6(CN(C(=O)C7CC7(F)F)C6)C5)c4c(=O)n3C3CC3)c12` (stereo partly drawn) [compound 246, 2-amino-4-(6-cyclopropyl-4-(2-(2,2-difluorocyclopropane-1-carbonyl)-2,6-diazaspiro[3.6]decan-6-yl)-8-fluoro-2-(((2R,7aS)-2-fluorotetrahydro-1H-pyrrolizin-7a(5H)-yl)methoxy)-5-oxo-5,6-dihydropyrido[4,3-d]pyrimidin-7-yl)-7-fluorobenzo[b]thiophene-3-carbonitrile], the IC50 in assay [1] and in assay [2] was less than 5 µM in each case.

The IC50 is the concentration at which inhibition is half-maximal. Read a high IC50 as weaker potency.
